pKd: −log10 of the molar value.
Key:
[1] = test system: MLKL translocation in transfected THP-1 cells; assay: Flag-MLKL translocation to cell membrane, immunofluorescent staining, confocal microscopy; assay type: cell-based, human; conditions: transfected THP-1 cells stimulated with compound and TBZ, FIG. 3
Protocol: A human monocyte cell line THP-1 and a human colon cancer cell line HT-29 were maintained in a 10% FBS-Roswell Park Memorial Institute (RPMI) 1640 medium supplemented with 2 mM L-glutamine, 100 U/ml penicillin, and 100 μg/ml streptomycin at 37° C. under a 5% CO2 condition. The THP-1 cells were differentiated into macrophages in an RPMI 1640 medium containing 500 nM Phorbol 12-myristate 13-acetate (PMA) for 3 hours. Human mixed lineage kinase domain-like protein (MLKL)-flag plasmid (Sino Biological, HG12810-CF) transfection was performed using the electroporation system (Invitrogen) of MicroPorator-mini (Digital Bio).
Cells were seeded on cell culture-treated glass chamber slides. The cells were pretreated with Z-VAD, BV6, and the indicated compound for 1 hour, and then treated with TNF-α and BV6 overnight. Subsequently, the cells were washed with phosphate-buffered saline (PBS) and fixed in 4% paraformaldehyde for 10 minutes. Before incubation for 10 minutes in 0.25% Triton X-100 in PBS, the cells were washed three more times with PBS. The cells were blocked with 5% bovine serum albumin (BSA) in PBS for 30 minutes and stained using an anti-Flag (Sigma, F7425-2MG) antibody. The nuclei were stained with DAPI (Invitrogen, 00-4959-52). Images were captured using a confocal microscope (Olympus, FV1000). […]

[2] = target: T1, MLKL N-term domain (amino acids 1-154) (Homo sapiens, UniProt Q8NB16); assay: Surface plasmon resonance (SPR) analysis, binding to MLKL N-term domain; conditions: MLKL N-term domain immobilized on CM5 chip, Biacore T200, 25° C., 10 mM HEPES pH 7.4
T1 construct: MLKL N-term (amino acids 1-154) protein that had been purified in a laboratory; made in house
T1 sequence (Q8NB16 1-154): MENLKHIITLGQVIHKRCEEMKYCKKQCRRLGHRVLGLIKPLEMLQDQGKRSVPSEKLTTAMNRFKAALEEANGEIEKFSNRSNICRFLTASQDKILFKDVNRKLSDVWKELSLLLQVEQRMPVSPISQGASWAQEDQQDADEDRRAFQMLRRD
Protocol: (§1) The interaction between MLKL and apomorphine (=APO) was detected through surface plasmon resonance (SPR) analysis using Biacore T200 (GE Healthcare). For pH scouting, a buffer consisting of 10 mM sodium acetate (pH 4.0 to 6.0) was used. MLKL protein (Abcam, ab241453), and MLKL N-term (amino acids 1-154) protein that had been purified in a laboratory were immobilized on the surface of a sensor chip CM5 (GE Healthcare) under scouted buffer conditions. To deduce an Rligand value, a coupling process was performed based on the molecular weights of MLKL, MLKL N-term domain (MW ligand), and APO (MW analyte). Oxidized (24 hr, RT incubation) and reduced (+DTT(DL-dithiothreitol)) forms of APO were injected into a running buffer (flow rate: 10 μl/min) consisting of 10 mM HEPES (pH 7.4) at 25° C. A sensorgram was recorded and analyzed in real time using control software provided by the Biacore T200 system itself. Six or more concentrations of APO were used in combination, and each KD value was derived. All run data was calculated using BIAevaluation Software (GE Healthcare).
(§2) SPR analysis was used to analyze the interaction pattern between APO and the MLKL protein (Experimental Method 1-10). […] Here, the analysis was performed by binding MLKL and the MLKL N-term domain protein immobilized on a CM5 chip with APO having six concentrations.

MLKL oligomerization = MLKL oligomerization (tetramer and octamer bands) by non-reducing or reducing SDS-PAGE; assay type: cell-based, human; conditions: cytoplasmic and membrane fractions, necroptosis induced with TBZ, FIG. 2 / FIG. 6A
Protocol: Cells were pretreated with Z-VAD (invivoGen, tlrl-vad) and a compound for 1 hour, and necroptosis was induced with TNF-α (ATGen, TNF0501) and BV6 (Biovision, B1332-5) for the indicated time. The prepared cells were appropriately treated according to analysis (Z-VAD: carbobenzoxy-valyl-alanyl-aspartyl, TNF-α: tumor necrosis factor-α, BV6: 4,4′-(1,6-hexanediyl)bis[N-methyl-L-alanyl-(2S)-2-cyclohexylglycyl-L-prolyl-β-phenyl-L-phenylalaninamide)
Cells were treated with a drug candidate and then collected using centrifugation at 4° C. and 1,500×g for 5 minutes. A supernatant was centrifuged again at 4° C. and 1,500×g for 5 minutes to remove remaining debris, concentrated at 4° C. and 14,000×g for 30 minutes using Amicon ultra-0.5 centrifugal filter unit 10K (Millipore, UFC501096), and stored. […] The extracted protein concentration was measured using a bicinchoninic acid (BCA) protein assay kit (Thermo Fisher Scientific, 23225). […]
To test whether the tetramer and octamer formation of p-MLKL for pore formation in the cell membrane is inhibited by apomorphine (APO), cells that had been treated with each molecule for the indicated time were separated into cytoplasmic and membrane fractions and analyzed through non-reducing or reducing sodium dodecyl sulfate-polyacrylamide gel electrophoresis (SDS-PAGE), and then investigated with specific antibodies (Experimental Method 1-6). […]

MLKL protein = target: T2, MLKL protein (Homo sapiens, UniProt Q8NB16); assay: Surface plasmon resonance (SPR) analysis, binding to MLKL protein; conditions: MLKL immobilized on CM5 chip, Biacore T200, 25° C., 10 mM HEPES pH 7.4
T2 construct: purchased Abcam ab241453
T2 sequence (Q8NB16 1-471): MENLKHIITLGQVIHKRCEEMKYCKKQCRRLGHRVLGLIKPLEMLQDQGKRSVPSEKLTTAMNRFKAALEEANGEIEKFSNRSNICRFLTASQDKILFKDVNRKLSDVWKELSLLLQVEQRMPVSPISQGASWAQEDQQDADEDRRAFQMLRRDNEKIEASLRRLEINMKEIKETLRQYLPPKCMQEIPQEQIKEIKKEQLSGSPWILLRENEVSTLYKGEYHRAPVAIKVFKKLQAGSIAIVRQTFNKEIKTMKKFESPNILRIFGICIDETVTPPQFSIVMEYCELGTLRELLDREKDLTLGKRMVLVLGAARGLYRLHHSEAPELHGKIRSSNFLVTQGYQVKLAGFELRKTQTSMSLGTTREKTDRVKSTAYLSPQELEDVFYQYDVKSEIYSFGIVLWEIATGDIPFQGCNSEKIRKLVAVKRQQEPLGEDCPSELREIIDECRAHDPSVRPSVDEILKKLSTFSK
Protocol: as §1, §2

SMILES | distribution of Flag-MLKL signals [1] | pKd [2] | intensities of the tetramer and octamer bands of MLKL (MLKL oligomerization) | pKd (MLKL protein)
CN1C(=O)C(Cc2c[nH]c3ccccc23)NC1=S (stereo not shown) [NEC-1, necrostatin-1] | mostly distributed in the cytoplasm |  |  | 
CN1CCc2cccc3c2[C@H]1Cc1ccc(O)c(O)c1-3 [reduced APO] |  | 2.94 | no change | 6.61

From US20250000855A1, “USE OF APOMORPHINE AS THERAPEUTIC AGENT FOR NECROPTOSIS-RELATED DISEASES” (INDUSTRY-ACADEMIC COOPERATION FOUNDATION, YONSEI UNIVERSITY, priority 2021, published 2025)
